According to ChEMBL document CHEMBL1201861, “Genomics of Drug Sensitity in Cancer screening data, Wellcome Trust Sanger Institute”:
pIC50: −log10 of the molar value.

Experiments:
Test in all cases: cells
[1] = tested on: COLO-800; assay type: functional, cell-based, Homo sapiens; conditions: Homo sapiens, COLO-800;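 further: growth inhibition of COLO-800 cells, read out with a cell viability assay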
Description: SANGER: Inhibition of human COLO-800 cell growth in a cell viability assay.

[2] = tested on: COLO-829; assay type: functional, cell-based, Homo sapiens; conditions: Homo sapiens, COLO-829
Description: SANGER: Inhibition of human COLO-829 cell growth in a cell viability assay.

[3] = tested on: CTV-1; assay type: functional, cell-based, Homo sapiens; conditions: Homo sapiens, CTV-1;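 further: growth inhibition of the cell line, read out with a cell viability assay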
Description: SANGER: Inhibition of human CTV-1 cell growth in a cell viability assay.

[4] = tested on: D-247MG; assay type: functional, cell-based; conditions: Homo sapiens
Description: SANGER: Inhibition of human D-247MG cell growth in a cell viability assay.

[5] = tested on: D283 Med; assay type: functional, cell-based, Homo sapiens; conditions: Homo sapiens, D283 Med
Description: SANGER: Inhibition of human D-283MED cell growth in a cell viability assay.

[6] = tested on: DEL; assay type: functional, cell-based, Homo sapiens; conditions: Homo sapiens, DEL;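 further: growth inhibition of the human DEL cell line, read out with a cell viability assay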
Description: SANGER: Inhibition of human DEL cell growth in a cell viability assay.

[7] = tested on: DMS-114; assay type: functional, cell-based, Homo sapiens; conditions: Homo sapiens, DMS-114
[8] = tested on: DOHH-2; assay type: functional, cell-based, Homo sapiens; conditions: Homo sapiens, DOHH-2;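 further: growth inhibition of human DOHH-2 cells, read out with a cell viability assay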
Description: SANGER: Inhibition of human DOHH-2 cell growth in a cell viability assay.

[9] = tested on: DU-4475; assay type: functional, cell-based, Homo sapiens; conditions: Homo sapiens, DU-4475
Description: SANGER: Inhibition of human DU-4475 cell growth in a cell viability assay.

[10] = tested on: EW-13; assay type: functional, cell-based, Homo sapiens; conditions: Homo sapiens, EW-13; read-out: IC50;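 further: growth inhibition of EW-13 cells, read out with a cell viability assay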
Description: SANGER: Inhibition of human EW-13 cell growth in a cell viability assay.

[11] = tested on: GAK; assay type: functional, cell-based, Homo sapiens; conditions: Homo sapiens, GAK;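 further: cell growth inhibition read out by a cell viability assay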
Description: SANGER: Inhibition of human GAK cell growth in a cell viability assay.

[12] = tested on: HCE-4; assay type: functional, cell-based; conditions: Homo sapiens;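 further: cell viability assay measuring inhibition of growth in the human HCE-4 cell line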
Description: SANGER: Inhibition of human HCE-4 cell growth in a cell viability assay.

[13] = tested on: HEL; assay type: functional, cell-based, Homo sapiens; conditions: Homo sapiens, HEL;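 further: growth inhibition of HEL cells, read out with a cell viability assay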
Description: SANGER: Inhibition of human HEL cell growth in a cell viability assay.

[14] = tested on: IST-SL1; assay type: functional, cell-based, Homo sapiens; conditions: Homo sapiens, IST-SL1;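 further: growth inhibition of human IST-SL1 cells, read out with a cell viability assay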
Description: SANGER: Inhibition of human IST-SL1 cell growth in a cell viability assay.

[15] = tested on: J-RT3-T3-5; assay type: functional, cell-based, Homo sapiens; conditions: Homo sapiens, J-RT3-T3-5;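 further: cell viability assay measuring growth inhibition of human J-RT3-T3-5 cells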
Description: SANGER: Inhibition of human J-RT3-T3-5 cell growth in a cell viability assay.

[16] = tested on: KM-H2; assay type: functional, cell-based, Homo sapiens; conditions: Homo sapiens, KM-H2;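 further: growth inhibition of KM-H2 cells, read out by a cell viability assay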
Description: SANGER: Inhibition of human KM-H2 cell growth in a cell viability assay.

[17] = tested on: L-428; assay type: functional, cell-based, Homo sapiens; conditions: Homo sapiens, L-428
Description: SANGER: Inhibition of human L-428 cell growth in a cell viability assay.

[18] = tested on: LS-411N; assay type: functional, cell-based, Homo sapiens; conditions: Homo sapiens, LS-411N
[19] = tested on: LXF-289 cell line; assay type: functional, cell-based; conditions: Homo sapiens
Description: SANGER: Inhibition of human LXF-289 cell growth in a cell viability assay.

[20] = tested on: NB10; assay type: functional, cell-based, Homo sapiens; conditions: Homo sapiens, NB10;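 further: growth inhibition of NB10 cells, read out by a cell viability assay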
Description: SANGER: Inhibition of human NB10 cell growth in a cell viability assay.

[21] = tested on: NCI-H1092; assay type: functional, cell-based, Homo sapiens; conditions: Homo sapiens, NCI-H1092;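 further: cell growth inhibition measured with a cell viability assay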
Description: SANGER: Inhibition of human NCI-H1092 cell growth in a cell viability assay.

[22] = tested on: NCI-H1770; assay type: functional, cell-based, Homo sapiens; conditions: Homo sapiens, NCI-H1770;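 further: growth inhibition of NCI-H1770 cells determined with a viability readout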
Description: SANGER: Inhibition of human NCI-H1770 cell growth in a cell viability assay.

[23] = tested on: NCI-H526; assay type: functional, cell-based, Homo sapiens; conditions: Homo sapiens, NCI-H526;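 further: growth inhibition of the human NCI-H526 cell line, measured by a cell viability assay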
Description: SANGER: Inhibition of human NCI-H526 cell growth in a cell viability assay.

[24] = tested on: NCI-H69; assay type: functional, cell-based, Homo sapiens; conditions: Homo sapiens, NCI-H69;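 further: growth inhibition of the cell line, read out with a cell viability assay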
Description: SANGER: Inhibition of human NCI-H69 cell growth in a cell viability assay.

[25] = tested on: NCI-N87; assay type: functional, cell-based; conditions: Homo sapiens;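 further: growth inhibition of human NCI-N87 cells, read out with a cell viability assay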
Description: SANGER: Inhibition of human NCI-N87 cell growth in a cell viability assay.

[26] = tested on: SNU1; assay type: functional, cell-based, Homo sapiens; conditions: Homo sapiens, SNU1;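 further: growth inhibition of human NCI-SNU-1 cells, measured with a cell viability assay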
Description: SANGER: Inhibition of human NCI-SNU-1 cell growth in a cell viability assay.

[27] = tested on: SNU-5; assay type: functional, cell-based, Homo sapiens; conditions: Homo sapiens, SNU-5;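 further: cell viability readout used to measure growth inhibition in human NCI-SNU-5 cells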
Description: SANGER: Inhibition of human NCI-SNU-5 cell growth in a cell viability assay.

[28] = tested on: NEC8; assay type: functional, cell-based, Homo sapiens; conditions: Homo sapiens, NEC8;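 further: growth inhibition of human NEC8 cells, read out by a cell viability assay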
Description: SANGER: Inhibition of human NEC8 cell growth in a cell viability assay.

[29] = tested on: NKM-1; assay type: functional, cell-based, Homo sapiens; conditions: Homo sapiens, NKM-1;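 further: growth inhibition of NKM-1 cells, read out with a cell viability assay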
Description: SANGER: Inhibition of human NKM-1 cell growth in a cell viability assay.

[30] = tested on: NOMO-1; assay type: functional, cell-based, Homo sapiens; conditions: Homo sapiens, NOMO-1;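 further: growth inhibition of human NOMO-1 cells measured by a cell viability assay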
Description: SANGER: Inhibition of human NOMO-1 cell growth in a cell viability assay.

[31] = tested on: OVCAR-4; assay type: functional, cell-based, Homo sapiens; conditions: Homo sapiens, OVCAR-4;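 further: growth inhibition of human OVCAR-4 cells, measured with a cell viability assay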
Description: SANGER: Inhibition of human OVCAR-4 cell growth in a cell viability assay.

[32] = tested on: PSN1; assay type: functional, cell-based, Homo sapiens; conditions: Homo sapiens, PSN1;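 further: suppression of growth of human PSN1 cells, read out by a cell viability assay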
Description: SANGER: Inhibition of human PSN1 cell growth in a cell viability assay.

[33] = tested on: RKO; assay type: functional, cell-based, Homo sapiens; conditions: Homo sapiens, RKO;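 further: growth inhibition of human RKO cells, read out with a cell viability assay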
Description: SANGER: Inhibition of human RKO cell growth in a cell viability assay.

[34] = tested on: RS4-11; assay type: functional, cell-based, Homo sapiens; conditions: Homo sapiens, RS4-11;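 further: growth inhibition of RS4-11 cells, read out by a cell viability assay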
Description: SANGER: Inhibition of human RS4-11 cell growth in a cell viability assay.

[35] = tested on: SK-NEP-1; assay type: functional, cell-based, Homo sapiens; conditions: Homo sapiens, SK-NEP-1;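 further: growth inhibition of human SK-NEP-1 cells, read out by a cell viability assay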
Description: SANGER: Inhibition of human SK-NEP-1 cell growth in a cell viability assay.

[36] = tested on: SNU-C2B; assay type: functional, cell-based; conditions: Homo sapiens;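 further: cell viability readout used to measure compound-driven suppression of SNU-C2B cell proliferation, IC50 marking half-maximal growth inhibition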
Description: SANGER: Inhibition of human SNU-C2B cell growth in a cell viability assay.

[37] = tested on: A498; assay type: functional, cell-based, Homo sapiens; conditions: Homo sapiens, A498;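 further: growth inhibition of human A498 cells, read out with a cell viability assay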
Description: SANGER: Inhibition of human A498 cell growth in a cell viability assay.

[38] = tested on: A704; assay type: functional, cell-based; conditions: Homo sapiens;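 further: growth inhibition of human A704 cells, read out with a cell viability assay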
Description: SANGER: Inhibition of human A704 cell growth in a cell viability assay.

[39] = tested on: ATN-1; assay type: functional, cell-based, Homo sapiens; conditions: Homo sapiens, ATN-1;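 further: growth inhibition of human ATN-1 cells, read out with a cell viability assay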
Description: SANGER: Inhibition of human ATN-1 cell growth in a cell viability assay.

[40] = tested on: BT-474; assay type: functional, cell-based, Homo sapiens; conditions: Homo sapiens, BT-474
Description: SANGER: Inhibition of human BT-474 cell growth in a cell viability assay.

[41] = tested on: Becker; assay type: functional, cell-based, Homo sapiens; conditions: Homo sapiens, Becker;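 further: growth inhibition of Becker cells, read out with a cell viability assay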
Description: SANGER: Inhibition of human Becker cell growth in a cell viability assay.

[42] = tested on: C8166; assay type: functional, cell-based, Homo sapiens; conditions: Homo sapiens, C8166;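 further: growth inhibition of human C8166 cells measured by a cell viability assay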
Description: SANGER: Inhibition of human C8166 cell growth in a cell viability assay.

[43] = tested on: TE-8; assay type: functional, cell-based, Homo sapiens; conditions: Homo sapiens, TE-8;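 further: growth inhibition of TE-8 cells, measured with a cell viability readout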
Description: SANGER: Inhibition of human TE-8 cell growth in a cell viability assay.

[44] = tested on: TK-10; assay type: functional, cell-based, Homo sapiens; conditions: Homo sapiens, TK-10;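 further: growth inhibition of TK-10 cells, read out in a cell viability assay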
Description: SANGER: Inhibition of human TK10 cell growth in a cell viability assay.

[45] = tested on: U-266; assay type: functional, cell-based, Homo sapiens; conditions: Homo sapiens, U-266
Description: SANGER: Inhibition of human U-266 cell growth in a cell viability assay.

[46] = tested on: U-87 MG; assay type: functional, cell-based, Homo sapiens, U-87MG ATCC; conditions: Homo sapiens, U-87 MG;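 further: growth inhibition of the cells measured with a viability assay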
Description: SANGER: Inhibition of human U-87-MG cell growth in a cell viability assay.

[47] = tested on: UACC-257; assay type: functional, cell-based, Homo sapiens; conditions: Homo sapiens, UACC-257
Description: SANGER: Inhibition of human UACC-257 cell growth in a cell viability assay.

[48] = tested on: CGTH-W-1; assay type: functional, cell-based, Homo sapiens; conditions: Homo sapiens, CGTH-W-1;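 further: growth inhibition of human CGTH-W-1 cells measured by cell viability assay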
Description: SANGER: Inhibition of human CGTH-W-1 cell growth in a cell viability assay.

[49] = tested on: COLO-320-HSR; assay type: functional, cell-based, Homo sapiens; conditions: Homo sapiens, COLO-320-HSR;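 further: growth inhibition of COLO-320-HSR cells, determined with a cell viability assay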
Description: SANGER: Inhibition of human COLO-320-HSR cell growth in a cell viability assay.

[50] = tested on: COLO-684; assay type: functional, cell-based, Homo sapiens; conditions: Homo sapiens, COLO-684
Description: SANGER: Inhibition of human COLO-684 cell growth in a cell viability assay.

Structure (SMILES): CC1=C(/C=C/C(C)=C/C=C/C(C)=C/C(=O)O)C(C)(C)CCC1 [TRETINOIN]
- pIC50 [1]: < 5.00
- pIC50 [2]: < 5.00
- pIC50 [3]: 6.02
- pIC50 [4]: < 5.00
- pIC50 [5]: 6.55
- pIC50 [6]: < 5.00
- pIC50 [7]: < 5.00
- pIC50 [8]: < 5.00
- pIC50 [9]: < 5.00
- pIC50 [10]: 5.12
- pIC50 [11]: < 5.00
- pIC50 [12]: < 5.00
- pIC50 [13]: < 5.00
- pIC50 [14]: < 5.00
- pIC50 [15]: < 5.00
- pIC50 [16]: < 5.00
- pIC50 [17]: < 5.00
- pIC50 [18]: < 5.00
- pIC50 [19]: < 5.00
- pIC50 [20]: < 5.00
- pIC50 [21]: < 5.00
- pIC50 [22]: < 5.00
- pIC50 [23]: 5.11
- pIC50 [24]: 5.64
- pIC50 [25]: < 5.00
- pIC50 [26]: < 5.00
- pIC50 [27]: < 5.00
- pIC50 [28]: < 5.00
- pIC50 [29]: 5.08
- pIC50 [30]: < 5.00
- pIC50 [31]: < 5.00
- pIC50 [32]: < 5.00
- pIC50 [33]: < 5.00
- pIC50 [34]: 5.35
- pIC50 [35]: 6.18
- pIC50 [36]: < 5.00
- pIC50 [37]: < 5.00
- pIC50 [38]: < 5.00
- pIC50 [39]: 7.52
- pIC50 [40]: < 5.00
- pIC50 [41]: < 5.00
- pIC50 [42]: < 5.00
- pIC50 [43]: < 5.00
- pIC50 [44]: < 5.00
- pIC50 [45]: 5.39
- pIC50 [46]: < 5.00
- pIC50 [47]: < 5.00
- pIC50 [48]: < 5.00
- pIC50 [49]: < 5.00
- pIC50 [50]: < 5.00

Structure (SMILES): O=C(NCCCNc1nc(Nc2cccc(NC(=O)N3CCCC3)c2)ncc1I)c1cccs1 [BX-795]
- pIC50 [1]: 5.69
- pIC50 [2]: < 5.30
- pIC50 [4]: 5.49
- pIC50 [5]: 5.98
- pIC50 [6]: 5.56
- pIC50 [7]: < 5.30
- pIC50 [8]: 5.84
- pIC50 [9]: 5.89
- pIC50 [10]: < 5.30
- pIC50 [11]: < 5.30
- pIC50 [12]: < 5.30
- pIC50 [13]: < 5.30
- pIC50 [14]: 5.63
- pIC50 [15]: < 5.30
- pIC50 [16]: < 5.30
- pIC50 [17]: < 5.30
- pIC50 [18]: < 5.30
- pIC50 [19]: 6.18
- pIC50 [20]: 5.37
- pIC50 [21]: < 5.30
- pIC50 [22]: < 5.30
- pIC50 [23]: < 5.30
- pIC50 [25]: < 5.30
- pIC50 [26]: 5.38
- pIC50 [28]: < 5.30
- pIC50 [29]: 6.44
- pIC50 [30]: < 5.30
- pIC50 [31]: < 5.30
- pIC50 [32]: 5.55
- pIC50 [33]: < 5.30
- pIC50 [34]: 6.14
- pIC50 [35]: 5.78
- pIC50 [36]: < 5.30
- pIC50 [37]: 5.34
- pIC50 [38]: < 5.30
- pIC50 [39]: 5.86
- pIC50 [40]: < 5.30
- pIC50 [41]: 5.52
- pIC50 [42]: < 5.30
- pIC50 [43]: 5.45
- pIC50 [44]: < 5.30
- pIC50 [45]: < 5.30
- pIC50 [46]: < 5.30
- pIC50 [47]: < 5.30
- pIC50 [48]: 6.01
- pIC50 [49]: < 5.30
- pIC50 [50]: < 5.30

Structure (SMILES): NC1(c2ccc(-c3nc4ccn5c(=O)[nH]nc5c4cc3-c3ccccc3)cc2)CCC1 [MK-2206]
- pIC50 [1]: < 5.40
- pIC50 [3]: < 5.40
- pIC50 [4]: < 5.40
- pIC50 [5]: < 5.40
- pIC50 [6]: < 5.40
- pIC50 [7]: 5.44
- pIC50 [8]: 5.89
- pIC50 [9]: < 5.40
- pIC50 [10]: < 5.40
- pIC50 [11]: < 5.40
- pIC50 [12]: < 5.40
- pIC50 [13]: < 5.40
- pIC50 [14]: < 5.40
- pIC50 [15]: 6.13
- pIC50 [16]: < 5.40
- pIC50 [17]: < 5.40
- pIC50 [18]: < 5.40
- pIC50 [19]: 5.93
- pIC50 [20]: < 5.40
- pIC50 [21]: < 5.40
- pIC50 [22]: < 5.40
- pIC50 [23]: < 5.40
- pIC50 [24]: < 5.40
- pIC50 [25]: < 5.40
- pIC50 [26]: < 5.40
- pIC50 [27]: < 5.40
- pIC50 [28]: 7.02
- pIC50 [29]: 6.06
- pIC50 [30]: < 5.40
- pIC50 [31]: < 5.40
- pIC50 [32]: < 5.40
- pIC50 [33]: 5.73
- pIC50 [34]: 6.46
- pIC50 [35]: 5.94
- pIC50 [36]: < 5.40
- pIC50 [37]: < 5.40
- pIC50 [38]: < 5.40
- pIC50 [39]: < 5.40
- pIC50 [40]: < 5.40
- pIC50 [41]: < 5.40
- pIC50 [42]: < 5.40
- pIC50 [43]: < 5.40
- pIC50 [44]: < 5.40
- pIC50 [45]: < 5.40
- pIC50 [46]: < 5.40
- pIC50 [47]: < 5.40
- pIC50 [48]: < 5.40
- pIC50 [49]: < 5.40
- pIC50 [50]: 5.91
